US20240174622A1, “COMPOUND AND RADIOACTIVE LABELING COMPOUND” (NIHON MEDI-PHYSICS CO., LTD., priority 2021, published 2024)

What was measured:
[1] = tested on: LNCaP tumor-transplanted mouse; experiment: Internal radioactivity distribution using LNCaP tumor-transplanted mouse; assay type: in vivo
Protocol: (§1) The animal test was performed in compliance with the guidelines of Kyoto University Animal Experiment Committee. Male CB17/IcrJcl-Prkdc^scid mice were purchased from CLEA Japan, Inc. The animals were kept under 12 h/12 h, day/night cycle conditions and fed ad libitum with food and water. LNCaP cells (1.0×10^7 cells/mouse) or PC-3 cells (1.0×10^7 cells/mouse) were suspended in a mixture of PBS and Matrigel manufactured by Corning Life Sciences (1:1, 150 μL) and the suspension was subcutaneously transplanted to the right shoulder of mice under isoflurane anesthesia. Thereafter, the mice were kept for 40 to 60 days.
LNCaP or PC-3 tumor-implanted mice were administered saline solutions (185 kBq, 100 μL) of [^111In]In-PSMA-DA1 or [^111In]In-PSMA-DB from the tail vein (n=3 each). Mice were euthanized 1, 4, 24, 48, 96, and 192 hours after administration. Thereafter, blood and each organ were recovered, and the mass and radioactivity of the organs were measured.
The percentage (% ID) of the radioactivity amount to the administered radioactivity amount (injected dose) is shown as the value (% ID/g) divided by the blood mass or the organ mass (g).
LNCaP tumor-implanted mice prepared by the same method as in Example 1-1 were administered a saline solution (241 kBq/100 μL) of [^111In]In-PtDA from the tail vein (n=3). Mice were euthanized 1, 24, and 48 hours after administration. Thereafter, blood and each organ were recovered, and the mass and radioactivity of the organs were measured.
LNCaP tumor-implanted mice prepared by the same method as in Example 1-1 were administered a saline solution (259 kBq/100 μL each) of each of the radiolabeled compounds in Examples 3-1 to 3-3 or Comparative Examples 2-1 to 2-2 from the tail vein (n=2 to 3). Mice were euthanized 1, 4, 24, 48, 96, and 192 hours after administration. Thereafter, blood and each organ were recovered, and the mass and radioactivity of the organs were measured.
as §1, with “LNCaP cells (4.3×10^6 cells/mouse) or” for “LNCaP cells (1.0×10^7 cells/mouse) or”, “PC-3 cells (3.3×10^6 cells/mouse) were” for “PC-3 cells (1.0×10^7 cells/mouse) were”, “shoulder of CB17/IcrJcl-Prkdc^scid mice under” for “shoulder of mice under”
Mice were euthanized 1, 4, 24, 48, 96, and 192 hours after administration. Thereafter, blood and each organ were recovered, and the mass and radioactivity of the organs were measured.
The results are shown in Table 12 (Mean value±standard deviation, n=3).

[2] = target: human serum albumin (HSA) (Homo sapiens, UniProt P02768); experiment: Evaluation of binding to albumin (HSA solution, PBS control); conditions: left to stand in HSA solution (45 mg/mL)
Protocol: Thereafter, the reaction liquids were added to a spin column (Sephadex G-100; manufactured by Cytiva), and centrifuged at 1500×g at 4° C. for 2 minutes. After separation, the radioactivity for each of the column and the eluate was measured with a gamma counter.
When a compound to be evaluated binds to albumin to form a composite, the compound passes through the column because of the increased molecular size.
As in Examples described above, PBS and human albumin were used to evaluate binding to albumin.
Thereafter, the reaction liquid was added to a spin column (Sephadex G-50; manufactured by Cytiva), and centrifuged at 1500×g at 4° C. for 2 minutes. After separation, the radioactivity of the column and the eluate was measured with a gamma counter.

Sequence of human serum albumin (HSA) (P02768 25-609): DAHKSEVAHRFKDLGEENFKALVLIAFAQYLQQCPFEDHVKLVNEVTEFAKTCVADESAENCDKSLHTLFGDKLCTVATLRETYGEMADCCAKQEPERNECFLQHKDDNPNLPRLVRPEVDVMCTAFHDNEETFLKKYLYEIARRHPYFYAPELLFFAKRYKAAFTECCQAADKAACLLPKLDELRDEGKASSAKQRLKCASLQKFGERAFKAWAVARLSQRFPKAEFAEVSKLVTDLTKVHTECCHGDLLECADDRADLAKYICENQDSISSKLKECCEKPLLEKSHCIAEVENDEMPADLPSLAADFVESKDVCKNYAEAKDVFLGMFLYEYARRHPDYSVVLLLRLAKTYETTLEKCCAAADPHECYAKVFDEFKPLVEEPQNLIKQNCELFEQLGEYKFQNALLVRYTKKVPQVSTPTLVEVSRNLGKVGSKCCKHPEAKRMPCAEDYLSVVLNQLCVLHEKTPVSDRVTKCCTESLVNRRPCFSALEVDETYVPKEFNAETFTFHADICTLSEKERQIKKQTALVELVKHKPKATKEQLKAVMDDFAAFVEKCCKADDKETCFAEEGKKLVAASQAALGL

SMILES: O=C([O-])CN(Cc1cccc(C(=O)[O-])n1)C[C@H](Cc1ccc(NC(=O)CCCCCNC(=O)CCC(=O)NCCCC[C@H](NC(=O)N[C@@H](CCC(=O)O)C(=O)O)C(=O)O)cc1)N(CC(=O)[O-])Cc1cccc(C(=O)[O-])n1.[111In+3] [[^111In]In-Octapa-1, reference compound]
- Blood ([1]; 1 h after administration): 0.48 ± 0.09 % ID/g
- Brain ([1]; 1 h after administration): 0.02 ± 0.00 % ID/g
- Heart ([1]; 1 h after administration): 0.32 ± 0.08 % ID/g
- Intestine ([1]; 1 h after administration): 0.40 ± 0.13 % ID/g
- Kidney ([1]; 1 h after administration): 322 ± 42.8 % ID/g
- LNCaP Tumor ([1]; 1 h after administration): 9.72 ± 1.65 % ID/g
- Liver ([1]; 1 h after administration): 0.36 ± 0.13 % ID/g
- Lung ([1]; 1 h after administration): 0.99 ± 0.22 % ID/g
- Muscle ([1]; 1 h after administration): 0.20 ± 0.01 % ID/g
- Pancreas ([1]; 1 h after administration): 0.62 ± 0.19 % ID/g
- Spleen ([1]; 1 h after administration): 10.9 ± 5.59 % ID/g
- Stomach (% ID) ([1]; 1 h after administration): 0.08 ± 0.01 % ID
- Blood ([1]; 4 h after administration): 0.21 ± 0.18 % ID/g
- Brain ([1]; 4 h after administration): 0.02 ± 0.01 % ID/g
- Heart ([1]; 4 h after administration): 0.18 ± 0.03 % ID/g
- Intestine ([1]; 4 h after administration): 3.50 ± 1.21 % ID/g
- Kidney ([1]; 4 h after administration): 112 ± 54.6 % ID/g
- LNCaP Tumor ([1]; 4 h after administration): 4.73 ± 0.40 % ID/g
- Liver ([1]; 4 h after administration): 0.13 ± 0.02 % ID/g
- Lung ([1]; 4 h after administration): 0.23 ± 0.10 % ID/g
- Muscle ([1]; 4 h after administration): 0.10 ± 0.02 % ID/g
- Pancreas ([1]; 4 h after administration): 0.24 ± 0.07 % ID/g
- Spleen ([1]; 4 h after administration): 3.55 ± 1.75 % ID/g
- Stomach (% ID) ([1]; 4 h after administration): 0.37 ± 0.22 % ID
- Blood ([1]; 24 h after administration): 0.02 % ID/g
- Brain ([1]; 24 h after administration): 0.04 ± 0.04 % ID/g
- Heart ([1]; 24 h after administration): 0.04 ± 0.01 % ID/g
- Intestine ([1]; 24 h after administration): 0.27 ± 0.08 % ID/g
- Kidney ([1]; 24 h after administration): 24.9 ± 10.9 % ID/g
- LNCaP Tumor ([1]; 24 h after administration): 2.00 ± 0.61 % ID/g
- Liver ([1]; 24 h after administration): 0.06 ± 0.01 % ID/g
- Lung ([1]; 24 h after administration): 0.13 ± 0.06 % ID/g
- Muscle ([1]; 24 h after administration): 0.01 ± 0.01 % ID/g
- Pancreas ([1]; 24 h after administration): 0.12 ± 0.03 % ID/g
- Spleen ([1]; 24 h after administration): 2.48 ± 1.44 % ID/g
- Stomach (% ID) ([1]; 24 h after administration): 0.03 ± 0.01 % ID
- Blood ([1]; 48 h after administration): 0.00 ± 0.00 % ID/g
- Brain ([1]; 48 h after administration): 0.01 ± 0.00 % ID/g
- Heart ([1]; 48 h after administration): 0.02 ± 0.03 % ID/g
- Intestine ([1]; 48 h after administration): 0.52 ± 0.33 % ID/g
- Kidney ([1]; 48 h after administration): 7.48 ± 1.23 % ID/g
- LNCaP Tumor ([1]; 48 h after administration): 0.58 ± 0.11 % ID/g
- Liver ([1]; 48 h after administration): 0.04 ± 0.01 % ID/g
- Lung ([1]; 48 h after administration): 0.06 ± 0.02 % ID/g
- Muscle ([1]; 48 h after administration): 0.01 ± 0.02 % ID/g
- Pancreas ([1]; 48 h after administration): 0.05 ± 0.01 % ID/g
- Spleen ([1]; 48 h after administration): 1.64 ± 0.53 % ID/g
- Stomach (% ID) ([1]; 48 h after administration): 0.07 ± 0.04 % ID
- Blood ([1]; 96 h after administration): 0.02 ± 0.01 % ID/g
- Brain ([1]; 96 h after administration): 0.01 ± 0.00 % ID/g
- Heart ([1]; 96 h after administration): 0.03 ± 0.00 % ID/g
- Intestine ([1]; 96 h after administration): 0.13 ± 0.05 % ID/g
- Kidney ([1]; 96 h after administration): 7.24 ± 3.00 % ID/g
- LNCaP Tumor ([1]; 96 h after administration): 0.72 ± 0.11 % ID/g
- Liver ([1]; 96 h after administration): 0.08 ± 0.02 % ID/g
- Lung ([1]; 96 h after administration): 0.09 ± 0.03 % ID/g
- Muscle ([1]; 96 h after administration): 0.03 ± 0.04 % ID/g
- Pancreas ([1]; 96 h after administration): 0.04 ± 0.00 % ID/g
- Spleen ([1]; 96 h after administration): 2.06 ± 0.88 % ID/g
- Stomach (% ID) ([1]; 96 h after administration): 0.03 ± 0.01 % ID
- Blood ([1]; 192 h after administration): 0.00 % ID/g
- Brain ([1]; 192 h after administration): 0.01 % ID/g
- Heart ([1]; 192 h after administration): 0.01 % ID/g
- Intestine ([1]; 192 h after administration): 0.02 % ID/g
- Kidney ([1]; 192 h after administration): 2.16 % ID/g
- LNCaP Tumor ([1]; 192 h after administration): 0.36 % ID/g
- Liver ([1]; 192 h after administration): 0.05 % ID/g
- Lung ([1]; 192 h after administration): 0.04 % ID/g
- Muscle ([1]; 192 h after administration): 0.02 % ID/g
- Pancreas ([1]; 192 h after administration): 0.05 % ID/g
- Spleen ([1]; 192 h after administration): 0.85 % ID/g
- Stomach (% ID) ([1]; 192 h after administration): 0.01 % ID
- radioactivity in the eluate (in words) [2]: low
